Legend:
[1] = biological target: Cy5-labelled Mcl1 (amino acids 171-321) C286S protein (UniProtKB Q07820) (Homo sapiens (Human), UniProt Q07820, C286S); test: Inhibition of Mcl-1 by the fluorescence quenching assay (Example A, Method B); type: binding
Summary of the method: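 Cy5-labelled Mcl1 171-321 C286S (1 nM) quenched by TQ5WS-labelled PUMA peptide (10, 20 or 400 nM); displacement raises fluorescence (Ex 620/Em 680 nm). Buffer 10 mM HEPES, 150 mM NaCl, 0.05% Tween 20, pH 7.4, 5% DMSO; 2 h at room temperature, 11-point curves, IC50 converted to Ki (cKi/eKi).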

[2] = system: H929 multiple myeloma tumor line; test: In vitro cytotoxicity, MTT assay (Example B, Method A); type: cell-based; conditions: Homo sapiens, NCI-H929, 48 h, H929 cells, 48 hours exposure, read-out: C50
Description: The cytotoxicity studies were carried out on the H929 multiple myeloma tumor line.
The cells are distributed onto microplates and exposed to the test compounds for 48 hours. The cell viability is then quantified by a colorimetric assay, the Microculture Tetrazolium Assay (Carmichael et al, Cancer Res. 1987, 47, 939-942).
The results are expressed in C50 which means concentration corresponding to […] of effect/inhibition.

Chain of Cy5-labelled Mcl1 (amino acids 171-321) C286S protein (Q07820 171-321 C286S): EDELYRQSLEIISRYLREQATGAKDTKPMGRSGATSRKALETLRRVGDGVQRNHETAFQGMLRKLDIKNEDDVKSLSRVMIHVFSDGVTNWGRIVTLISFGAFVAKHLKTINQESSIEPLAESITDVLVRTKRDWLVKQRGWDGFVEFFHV

| Ki [1] | Compound | IC50 [2] |
| --- | --- | --- |
| 0.565 nM | CC[C@@H]1CCc2nccc(OC[C@H](C)C[C@H]3Cc4ccccc4[C@]34CC[C@@](Nc3cccc(Cl)c3)(C(=O)O)CC4)c21 [Example 612, (1r,2′S,4S)-4-(3-chloroanilino)-2′-[(2R)-3-{[(5R)-5-ethyl-6,7-dihydro-5H-cyclopenta[b]pyridin-4-yl]oxy}-2-methylpropyl]-2′,3′-dihydrospiro[cyclohexane-1,1′-indene]-4-carboxylic acid] | 315 nM |
| 18.9 nM | CC[C@H]1CCc2nccc(OC[C@H](C)C[C@H]3Cc4ccccc4[C@]34CC[C@@](Nc3cccc(Cl)c3)(C(=O)O)CC4)c21 [Example 613, (1r,2′S,4S)-4-(3-chloroanilino)-2′-[(2R)-3-{[(5S)-5-ethyl-6,7-dihydro-5H-cyclopenta[b]pyridin-4-yl]oxy}-2-methylpropyl]-2′,3′-dihydrospiro[cyclohexane-1,1′-indene]-4-carboxylic acid] | 2360 nM |
| 9.28 nM | C[C@@H](COc1ccnc2ccn(C)c12)C[C@H]1Cc2ccccc2[C@]12CC[C@@](Nc1cccc(Cl)c1)(C(=O)O)CC2 [Example 619, (1r,2′S,4S)-4-(3-chloroanilino)-2′-{(2R)-2-methyl-3-[(1-methyl-1H-pyrrolo[3,2-b]pyridin-7-yl)oxy]propyl}-2′,3′-dihydrospiro[cyclohexane-1,1′-indene]-4-carboxylic acid] | 1360 nM |
| 7.36 nM | C[C@@H](CNc1ccnc2ccsc12)C[C@H]1Cc2ccccc2[C@]12CC[C@@](Nc1cccc(Cl)c1)(C(=O)O)CC2 [Example 627, (1r,2′S,4S)-4-(3-chloroanilino)-2′-{(2R)-2-methyl-3-[(thieno[3,2-b]pyridin-7-yl)amino]propyl}-2′,3′-dihydrospiro[cyclohexane-1,1′-indene]-4-carboxylic acid] | 1330 nM |
| 69.9 nM | C[C@@H](COc1c[nH]c2ccccc12)C[C@H]1Cc2ccccc2[C@]12CC[C@@](Nc1cccc(Cl)c1)(C(=O)O)CC2 [Example 628, (1r,2′S,4S)-4-(3-chloroanilino)-2′-{(2R)-3-[(1H-indol-3-yl)oxy]-2-methylpropyl}-2′,3′-dihydrospiro[cyclohexane-1,1′-indene]-4-carboxylic acid] | 2400 nM |
| 12.6 nM | C[C@@H](COc1ccnc2c(Cl)cn(C)c12)C[C@H]1Cc2ccccc2[C@]12CC[C@@](Nc1cccc(Cl)c1)(C(=O)O)CC2 [Example 631, (1r,2′S,4S)-4-(3-chloroanilino)-2′-{(2R)-3-[(3-chloro-1-methyl-1H-pyrrolo[3,2-b]pyridin-7-yl)oxy]-2-methylpropyl}-2′,3′-dihydrospiro[cyclohexane-1,1′-indene]-4-carboxylic acid] | 3170 nM |
| 16.2 nM | C[C@@H](COc1ncnc2c1CCCC2)CC1=Cc2ccccc2[C@]12CC[C@@](Nc1cccc(Cl)c1)(C(=O)O)CC2 [Example 636, (1r,4R)-4-(3-chloroanilino)-2′-{(2R)-2-methyl-3-[(5,6,7,8-tetrahydroquinazolin-4-yl)oxy]propyl}spiro[cyclohexane-1,1′-indene]-4-carboxylic acid] | 3080 nM |
| 5.13 nM | C[C@@H](COc1ncnc2c1CCCC2)C[C@H]1Cc2ccccc2[C@]12CC[C@@](Nc1cccc(Cl)c1)(C(=O)O)CC2 [Example 637, (1r,2′S,4S)-4-(3-chloroanilino)-2′-{(2R)-2-methyl-3-[(5,6,7,8-tetrahydroquinazolin-4-yl)oxy]propyl}-2′,3′-dihydrospiro[cyclohexane-1,1′-indene]-4-carboxylic acid] | 1540 nM |
| 3.76 nM | C[C@@H](COc1ncnc2c1[C@H](C)CCC2)C[C@H]1Cc2ccccc2[C@]12CC[C@@](Nc1cccc(Cl)c1)(C(=O)O)CC2 [Example 638, (1r,2′S,4S)-4-(3-chloroanilino)-2′-[(2R)-2-methyl-3-{[(5R)-5-methyl-5,6,7,8-tetrahydroquinazolin-4-yl]oxy}propyl]-2′,3′-dihydrospiro[cyclohexane-1,1′-indene]-4-carboxylic acid] | 373 nM |

Reference: patent publication US20240150293A1, “SPIROCYCLOHEXANE DERIVATIVES, PHARMACEUTICAL COMPOSITIONS CONTAINING THEM AND THEIR USES AS ANTI-APOPTOTIC INHIBITORS” (LES LABORATOIRES SERVIER, priority 2021, published 2024)
